Laboratory results published in patent US20210147498A1, “USE OF GRAM-NEGATIVE LYSIN-ANTIMICROBIAL PEPTIDE (AMP) POLYPEPTIDE CONSTRUCTS IN PULMONARY SURFACTANT AND BIOFILMS” (priority 2018, published 2021).
≈ marks a conversion by molar mass, not a printed value. Like-named read-outs stand apart in the source and are kept apart here.

Tests used:
[1] = system: P. aeruginosa (strain WC-452); assay: 21-day serial passage resistance assay; type: cell-based, Pseudomonas aeruginosa; conditions: CAA broth, over 18 days of serial passage
Procedure: The well with the highest concentration of GN lysin in which bacterial growth was seen was then used as the inoculum for the next day's passage, and the process was repeated over a 21 day period. The MIC at each daily time-point was recorded, and resistance was measured as a step-wise increase in MIC.

[2] = system: carbapenem-resistant P. aeruginosa strains; assay: microbe, parasite or virus in culture; type: cell-based, Pseudomonas aeruginosa; conditions: for MIC: Pseudomonas aeruginosa; for MIC Combination / MIC Alone: vs. WC-452
Procedure: Such resensitization may be determined by combining the present lysins or lysin-AMP polypeptide constructs with an antibiotic in a checkerboard assay as described herein. Antibiotic-resistant bacteria, such as carbapenem-resistant P. aeruginosa, are added to the lysin or lysin-AMP polypeptide construct combination. […] See Clinical and Laboratory Standards Institute (CLSI), CLSI. […] M100 Performance Standards for Antimicrobial Susceptibility Testing; 29th Edition. Clinical and Laboratory Standards Institute, Wayne, Pa., which is herein incorporated by reference in its entirety.
Up to seven carbapenem-resistant isolates were assessed. […] See Clinical and Laboratory Standards Institute (CLSI), CLSI. […] M100 Performance Standards for Antimicrobial Susceptibility Testing; 29th Edition. Clinical and Laboratory Standards Institute, Wayne, Pa.

[3] = system: P. aeruginosa; assay: MIC by modified CLSI broth microdilution in CAA media, CAA with human serum or with Survanta; type: cell-based; conditions: Pseudomonas aeruginosa
Description: 2015. […] Clinical and Laboratory Standards Institute, Wayne, Pa.

`O=C(O)c1cn(C2CC2)c2cc(N3CCNCC3)c(F)cc2c1=O` [Ciprofloxacin] was tested, and the “increase of MIC during serial passage” value [1] was 16 fold.

Work on `C[C@@H](O)[C@H]1C(=O)N2C(C(=O)O)=C(S[C@@H]3CN[C@H](C(=O)N(C)C)C3)[C@H](C)[C@H]12` [Meropenem, meropenem] yielded an MIC ([2]; GN121, read-out: MIC (μg/mL) Alone, isolate PA19, checkerboard Meropenem + GN121) of 32 µg/mL, an MIC ([2]; GN121, read-out: MIC (μg/mL) Alone, isolate PA20, checkerboard Meropenem + GN121) of 16 µg/mL and an MIC ([2]; GN121, read-out: MIC (μg/mL) Alone, isolate PA21, checkerboard Meropenem + GN121) of 32 µg/mL. For the same molecule, the MIC ([2]; GN121, read-out: MIC (μg/mL) Alone, isolate PA22, checkerboard Meropenem + GN121) was 16 µg/mL, the MIC ([2]; GN121, read-out: MIC (μg/mL) Alone, isolate PA23, checkerboard Meropenem + GN121) was 16 µg/mL and the MIC ([2]; GN121, read-out: MIC (μg/mL) Alone, isolate PA24, checkerboard Meropenem + GN121) was 32 µg/mL. It also gave an MIC ([2]; GN121, read-out: MIC (μg/mL) Alone, isolate WC-452, checkerboard Meropenem + GN121) of 16 µg/mL, an MIC ([2]; GN123, read-out: MIC (μg/mL) Alone, isolate PA19, checkerboard MEROPENEM + GN123) of 32 µg/mL and an MIC ([2]; GN123, read-out: MIC (μg/mL) Alone, isolate PA20, checkerboard MEROPENEM + GN123) of 16 µg/mL. It also gave an MIC ([2]; GN123, read-out: MIC (μg/mL) Alone, isolate PA21, checkerboard MEROPENEM + GN123) of 32 µg/mL, an MIC ([2]; GN123, read-out: MIC (μg/mL) Alone, isolate PA22, checkerboard MEROPENEM + GN123) of 16 µg/mL and an MIC ([2]; GN123, read-out: MIC (μg/mL) Alone, isolate PA23, checkerboard MEROPENEM + GN123) of 16 µg/mL. For the same molecule, the MIC ([2]; GN123, read-out: MIC (μg/mL) Alone, isolate PA24, checkerboard MEROPENEM + GN123) was 32 µg/mL, the MIC ([2]; GN123, read-out: MIC (μg/mL) Alone, isolate WC-452, checkerboard MEROPENEM + GN123) was 16 µg/mL and the “susceptibility category of the isolate, carbapenem Alone” value ([2]; isolate PA19) was “(R) ((R) = resistant)”. For the same molecule, the “MIC (μg/mL) Combination” value ([2]; isolate PA19, MEROPENEM combined with GN123) was 0.5 µg/mL, the “MIC (μg/mL) Combination” value ([2]; isolate PA19, Meropenem combined with GN121) was 1 µg/mL and the “susceptibility category of the isolate, carbapenem in Combination” value (“susceptibility category … in Combination” below) ([2]; isolate PA19, combined with GN123) was “(S) ((S) = sensitive)”. For the same molecule, the “susceptibility category of the isolate, carbapenem Alone” value ([2]; isolate PA20) was “(R) ((R) = resistant)”, the “MIC (μg/mL) Combination” value ([2]; isolate PA20, MEROPENEM combined with GN123) was 0.5 µg/mL and the “MIC (μg/mL) Combination” value ([2]; isolate PA20, Meropenem combined with GN121) was 1 µg/mL. The “susceptibility category … in Combination” value ([2]; isolate PA20, combined with GN123) was “(S) ((S) = sensitive)”, the “susceptibility category of the isolate, carbapenem Alone” value ([2]; isolate PA21) was “(R) ((R) = resistant)” and the “MIC (μg/mL) Combination” value ([2]; isolate PA21, MEROPENEM combined with GN123) was 1 µg/mL. The “MIC (μg/mL) Combination” value ([2]; isolate PA21, Meropenem combined with GN121) was 2 µg/mL, the “susceptibility category … in Combination” value ([2]; isolate PA21, combined with GN123) was “(S) ((S) = sensitive)” and the “susceptibility category of the isolate, carbapenem Alone” value ([2]; isolate PA22) was “(R) ((R) = resistant)”. For the same molecule, the “MIC (μg/mL) Combination” value ([2]; isolate PA22, MEROPENEM combined with GN123) was 1 µg/mL, the “MIC (μg/mL) Combination” value ([2]; isolate PA22, Meropenem combined with GN121) was 1 µg/mL and the “susceptibility category … in Combination” value ([2]; isolate PA22, combined with GN123) was “(S) ((S) = sensitive)”. The “susceptibility category of the isolate, carbapenem Alone” value ([2]; isolate PA23) was “(R) ((R) = resistant)”, the “MIC (μg/mL) Combination” value ([2]; isolate PA23, MEROPENEM combined with GN123) was 0.5 µg/mL and the “MIC (μg/mL) Combination” value ([2]; isolate PA23, Meropenem combined with GN121) was 2 µg/mL. The “susceptibility category … in Combination” value ([2]; isolate PA23, combined with GN123) was “(S) ((S) = sensitive)”, the “susceptibility category of the isolate, carbapenem Alone” value ([2]; isolate PA24) was “(R) ((R) = resistant)” and the “MIC (μg/mL) Combination” value ([2]; isolate PA24, MEROPENEM combined with GN123) was 2 µg/mL. For the same molecule, the “MIC (μg/mL) Combination” value ([2]; isolate PA24, Meropenem combined with GN121) was 1 µg/mL, the “susceptibility category … in Combination” value ([2]; isolate PA24, combined with GN123) was “(S) ((S) = sensitive)” and the “susceptibility category of the isolate, carbapenem Alone” value ([2]; isolate WC-452) was “(R) ((R) = resistant)”. For the same molecule, the “MIC (μg/mL) Combination” value ([2]; isolate WC-452, MEROPENEM combined with GN123) was 1 µg/mL, the “MIC (μg/mL) Combination” value ([2]; isolate WC-452, Meropenem combined with GN121) was 1 µg/mL and the “susceptibility category … in Combination” value ([2]; isolate WC-452, combined with GN123) was “(S) ((S) = sensitive)”. For the same molecule, the “susceptibility category … in Combination” value ([2]; isolate WC-452, combined with GN351) was “(S) ((S) = sensitive)”, the “susceptibility category … in Combination” value ([2]; isolate WC-452, combined with GN370) was “(S) ((S) = sensitive)” and the “susceptibility category … in Combination” value ([2]; isolate WC-452, combined with GN428) was “(S) ((S) = sensitive)”. For the same molecule, the MIC Combination ([2]; MEM combined with GN351) was 1 µg/mL, the MIC Combination ([2]; MEM combined with GN370) was 0.5 µg/mL and the MIC Combination ([2]; MEM combined with GN428) was 1 µg/mL. For the same molecule, the MIC Alone ([2]; checkerboard MEM + GN351) was 16 µg/mL, the MIC Alone ([2]; checkerboard MEM + GN428) was 16 µg/mL and the MIC ([3]; ATCC17646, read-out: Meropenem MIC (μg/mL), strain CFS 1109 (ATCC 17646)) was 0.5 µg/mL (≈ 1.3 µM). For the same molecule, the MIC ([3]; ATCC27853, read-out: Meropenem MIC (μg/mL), strain CFS 1766 (ATCC 27853)) was 1 µg/mL (≈ 2.61 µM), the MIC ([3]; PA1, read-out: Meropenem MIC (μg/mL), strain CFS 1539 (PA1)) was 16 µg/mL (≈ 41.7 µM) and the MIC ([3]; read-out: Meropenem MIC (μg/mL), […]) was greater than 32 µg/mL. The MIC ([3]; read-out: Meropenem MIC (μg/mL), strain CFS 1541 (PA3)) was 8 µg/mL (≈ 20.9 µM), the MIC ([3]; read-out: Meropenem MIC (μg/mL), strain CFS 1596 (PA26)) was 0.5 µg/mL (≈ 1.3 µM) and the MIC ([3]; read-out: Meropenem MIC (μg/mL), strain CFS 1597 (PA27)) was 1 µg/mL (≈ 2.61 µM). The MIC ([3]; read-out: Meropenem MIC (μg/mL), strain CFS 1669 (PA41)) was less than 0.25 µg/mL, the MIC ([3]; read-out: Meropenem MIC (μg/mL), strain CFS 1674 (PA46)) was 4 µg/mL (≈ 10.4 µM) and the MIC ([3]; read-out: Meropenem MIC (μg/mL), strain CFS 1675 (PA47)) was 4 µg/mL (≈ 10.4 µM).
